Measurements from patent US10323036B2 (Nimbus Lakshmi, Inc., priority 2016, dated 2019).
Read-outs that look alike come from different tables or passages of the source.

Molecular target: human TYK2 (JH2domain-pseudokinase) (Homo sapiens (Human), UniProt P29597)
Test: TYK2 JH2 Domain Binding Assay (KINOMEscan)
[1] = Table 4, JH2 binding assay, read-out: JH2 Kd
[2] = Table 5, Tyk2 JH2 Domain Binding Assay, read-out: JH2 Kd

Chain of human TYK2 (JH2domain-pseudokinase) (P29597 556-888): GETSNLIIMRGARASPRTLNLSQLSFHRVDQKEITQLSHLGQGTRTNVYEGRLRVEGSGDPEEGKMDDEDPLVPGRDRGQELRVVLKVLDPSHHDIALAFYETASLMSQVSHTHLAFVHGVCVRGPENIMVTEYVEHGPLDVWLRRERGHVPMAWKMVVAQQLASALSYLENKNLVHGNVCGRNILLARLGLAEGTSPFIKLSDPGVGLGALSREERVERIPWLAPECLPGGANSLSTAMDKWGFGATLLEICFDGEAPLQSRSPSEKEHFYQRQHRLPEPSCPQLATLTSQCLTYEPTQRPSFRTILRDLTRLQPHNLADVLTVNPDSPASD

Kd [1]	SMILES	other results
0.5 to 1 nM	COc1c(Cl)cccc1Nc1cc(Nc2ccc(C#N)cn2)nc2[nH]n(C)c(=O)c12 [Compound I-98, 6-((4-((3-chloro-2-methoxyphenyl)amino)-2-methyl-3-oxo-2,3-dihydro-1H-pyrazolo[3,4-b]pyridin-6-yl)amino)nicotinonitrile]	–
1 to 10 nM	COCc1ccnc(Nc2cc(Nc3cccc(F)c3OC)c3c(=O)n(C)[nH]c3n2)c1 [Compound I-76, 4-((3-fluoro-2-methoxyphenyl)amino)-6-((4-(methoxymethyl)pyridine-2-yl)amino)-2-methyl-1,2-dihydro-3H-pyrazolo[3,4-b]pyridin-3-one]	–
0.1 to 0.5 nM	Cc1ccc(Nc2cc(Nc3ccc(F)cc3S(C)(=O)=O)c3c(=O)n(C)[nH]c3n2)nn1 [Compound I-198, 4-((4-fluoro-2-(methylsulfonyl)phenyl)amino)-2-methyl-6-((6-methylpyridazin-3-yl)amino)-1,2-dihydro-3H-pyrazolo[3,4-b]pyridin-3-one]	–
> 10 nM	COc1c(C#N)cccc1Nc1cc(Nc2ccc(N3CCOCC3)cn2)nc2[nH]n(C)c(=O)c12 [Compound I-36]	–
0.5 to 1 nM	COc1c(F)cccc1Nc1cc(Nc2cnc(C(C)(C)OC)c(C#N)n2)nc2[nH]n(C)c(=O)c12 [Compound I-190, 6-((4-((3-fluoro-2-methoxyphenyl)amino)-2-methyl-3-oxo-2,3-dihydro-1H-pyrazolo[3,4-b]pyridin-6-yl)amino)-3-(2-methoxypropan-2-yl)pyrazine-2-carbonitrile]	–
0.1 to 0.5 nM	COc1c(Nc2cc(Nc3cccc(C4CC4)n3)nc3[nH]n(C)c(=O)c23)cccc1-c1nnn(C)n1 [Compound I-65, 6-((6-cyclopropylpyridin-2-yl)amino)-4-((2-methoxy-3-(2-methyl-2H-tetrazol-5-yl)phenyl)amino)-2-methyl-1,2-dihydro-3H-pyrazolo[3,4-b]pyridin-3-one]	–
0.5 to 1 nM	CN(c1cc(F)c(F)cc1Nc1cc(NC(=O)C2CC2)nc2[nH]n(C)c(=O)c12)S(C)(=O)=O [Compound I-230, N-(4-((4,5-difluoro-2-(N-methylmethylsulfonamido)phenyl)amino)-2-methyl-3-oxo-2,3-dihydro-1H-pyrazolo[3,4-b]pyridin-6-yl)cyclopropanecarboxamide]	–
0.1 to 0.5 nM	Cc1cc(Nc2cc(Nc3ccccc3S(C)(=O)=O)c3c(=O)n(C)[nH]c3n2)nc(C)n1 [Compound I-108, 6-((2,6-dimethylpyrimidin-4-yl)amino)-2-methyl-4-((2-(methylsulfonyl)phenyl)amino)-1,2-dihydro-3H-pyrazolo[3,4-b]pyridin-3-one]	–
1 to 10 nM	COc1c(F)cccc1Nc1cc(Nc2ccc(N3CCCCC3)cn2)nc2[nH]n(C)c(=O)c12 [Compound I-77, 4-((3-fluoro-2-methoxyphenyl)amino)-2-methyl-6-((5-(piperidin-1-yl)pyridin-2-yl)amino)-1,2-dihydro-3H-pyrazolo[3,4-b]pyridin-3-one]	–
1 to 10 nM	COc1c(F)cccc1Nc1cc(Nc2cc(C)c(F)cn2)nc2[nH]n(C)c(=O)c12 [Compound I-73, 4-((3-fluoro-2-methoxyphenyl)amino)-6-((5-fluoro-4-methylpyridin-2-yl)amino)-2-methyl-1,2-dihydro-3H-pyrazolo[3,4-b]pyridin-3-one]	–
1 to 10 nM	COc1c(Cl)cccc1Nc1cc(Nc2cnc(C)c(C#N)n2)nc2[nH]n(C)c(=O)c12 [Compound I-135, 6-((4-((3-chloro-2-methoxyphenyl)amino)-2-methyl-3-oxo-2,3-dihydro-1H-pyrazolo[3,4-b]pyridin-6-yl)amino)-3-methylpyrazine-2-carbonitrile]	–
1 to 10 nM	Cn1[nH]c2nc(NC(=O)[C@@H]3CC3(F)F)cc(Nc3ccc(C4CC4)cc3S(C)(=O)=O)c2c1=O [Compound I-237]	–

Continued, compound first:

SMILES	Kd [1]	other results
COc1c(Nc2cc(Nc3ccc(C)cn3)nc3[nH]n(C)c(=O)c23)cccc1-c1ncn(C)n1 [Compound I-16, 4-((2-methoxy-3-(1-methyl-1H-1,2,4-triazol-3-yl)phenyl)amino)-2-methyl-6-((5-methylpyridin-2-yl)amino)-1H-pyrazolo[3,4-b]pyridin-3(2H)-one]	0.1 to 0.5 nM	–
COc1ccccc1Nc1cc(NC(=O)C2CC2)nc2[nH]n(C)c(=O)c12 [Compound I-61, N-(4-((2-methoxyphenyl)amino)-2-methyl-3-oxo-2,3-dihydro-1H-pyrazolo[3,4-b]pyridin-6-yl)cyclopropanecarboxamide]	1 to 10 nM	–
COc1c(Nc2cc(Nc3cc(CO)ccn3)nc3[nH]n(C)c(=O)c23)cccc1-c1nnn(C)n1 [Compound I-6, 6-((4-(hydroxymethyl)pyridin-2-yl)amino)-4-((2-methoxy-3-(2-methyl-2H-tetrazol-5-yl)phenyl)amino)-2-methyl-1,2-dihydro-3H-pyrazolo[3,4-b]pyridin-3-one]	> 10 nM	–
COc1cccnc1Nc1cc(NC(=O)C2CC2)nc2[nH]n(C)c(=O)c12 [Compound I-223, N-(4-((3-methoxypyridin-2-yl)amino)-2-methyl-3-oxo-2,3-dihydro-1H-pyrazolo[3,4-b]pyridin-6-yl)cyclopropanecarboxamide]	1 to 10 nM	–
CN(c1cc(C(F)(F)F)ccc1Nc1cc(NC(=O)C2CC2)nc2[nH]n(C)c(=O)c12)S(C)(=O)=O [Compound I-235, N-(2-methyl-4-((2-(N-methylmethylsulfonamido)-4-(trifluoromethyl)phenyl)amino)-3-oxo-2,3-dihydro-1H-pyrazolo[3,4-b]pyridin-6-yl)cyclopropanecarboxamide]	0.1 to 0.5 nM	–
CN(c1cc(C2CCOCC2)ccc1Nc1cc(NC(=O)C2CC2)nc2[nH]n(C)c(=O)c12)S(C)(=O)=O [Compound I-234]	0.1 to 0.5 nM	–
COc1c(Nc2cc(Nc3cc(C#N)ccn3)nc3[nH]n(C)c(=O)c23)cccc1-c1nnn(C)n1 [Compound I-32, 2-((4-((2-methoxy-3-(2-methyl-2H-tetrazol-5-yl)phenyl)amino)-2-methyl-3-oxo-2,3-dihydro-1H-pyrazolo[3,4-b]pyridin-6-yl)amino)isonicotinonitrile]	> 10 nM	–
CCc1nn(-c2cccc(-c3nnn(C)n3)c2OC)c2cc(NC(=O)C3CC3)ncc12 [XVI-4, N-(3-ethyl-1-(2-methoxy-3-(2-methyl-2H-tetrazol-5-yl)phenyl)-1H-pyrazolo[4,3-c]pyridin-6-yl)cyclopropanecarboxamide]	–	Kd [2]: 0.1 to 1 nM
CN(c1ccccc1Nc1cc(Nc2cnc3c(n2)CCC3)nc2[nH]n(C)c(=O)c12)S(C)(=O)=O [Compound I-225, N-(2-((6-((6,7-dihydro-5H-cyclopenta[b]pyrazin-2-yl)amino)-2-methyl-3-oxo-2,3-dihydro-1H-pyrazolo[3,4-b]pyridin-4-yl)amino)phenyl)-N-methylmethanesulfonamide]	< 0.1 nM	–
COc1cc(C(=O)N2CCC2)ccc1Nc1cc(NC(=O)C2CC2)nc2[nH]n(C)c(=O)c12 [Compound I-82, N-(4-((4-(azetidine-1-carbonyl)-2-methoxyphenyl)amino)-2-methyl-3-oxo-2,3-dihydro-1H-pyrazolo[3,4-b]pyridin-6-yl)cyclopropanecarboxamide]	0.1 to 0.5 nM	–
COC1CN(c2ccc(Nc3cc(NC(=O)C4CC4)nc4[nH]n(C)c(=O)c34)c(N(C)S(C)(=O)=O)c2)C1 [Compound I-220, N-(4-((4-(3-methoxyazetidin-1-yl)-2-(N-methylmethylsulfonamido)phenyl)amino)-2-methyl-3-oxo-2,3-dihydro-1H-pyrazolo[3,4-b]pyridin-6-yl)cyclopropane-carboxamide]	0.1 to 0.5 nM	–
COc1c(Nc2cc(Nc3cccc(C#N)n3)nc3[nH]n(C)c(=O)c23)cccc1-c1ccn(C)n1 [Compound I-122, 6-((4-((2-methoxy-3-(1-methyl-1H-pyrazol-3-yl)phenyl)amino)-2-methyl-3-oxo-2,3-dihydro-1H-pyrazolo[3,4-b]pyridin-6-yl)amino)picolinonitrile]	0.1 to 0.5 nM	–
CNc1nn(-c2cccc(-c3ncn(C)n3)c2OC)c2cc(NC(=O)C3CC3)ncc12 [XVI-1, N-(1-(2-methoxy-3-(1-methyl-1H-1,2,4-triazol-3-yl)phenyl)-3-(methylamino)-1H-pyrazolo[4,3-c]pyridin-6-yl)cyclopropanecarboxamide]	–	Kd [2]: 10 to 100 nM; Kd (Tyk2 JH2 Domain Binding Assay, read-out: Kd): 7000 to 10000 nM
COc1c(Nc2cc(Nc3cc(C)nc(C)n3)nc3[nH]n(C)c(=O)c23)cccc1-c1ccn(C)n1 [Compound I-123, 6-((2,6-dimethylpyrimidin-4-yl)amino)-4-((2-methoxy-3-(1-methyl-1H-pyrazol-3-yl)phenyl)amino)-2-methyl-1,2-dihydro-3H-pyrazolo[3,4-b]pyridin-3-one]	0.1 to 0.5 nM	–
CN(c1cc(C2CC2)ccc1Nc1cc(NC(=O)C2CC2)nc2[nH]n(C)c(=O)c12)S(C)(=O)=O [Compound I-232]	< 0.1 nM	–
CN(c1cc(N2CCC2)ccc1Nc1cc(NC(=O)C2CC2)nc2[nH]n(C)c(=O)c12)S(C)(=O)=O [Compound I-219, N-(4-((4-(azetidin-1-yl)-2-(N-methylmethylsulfonamido)phenyl)amino)-2-methyl-3-oxo-2,3-dihydro-1H-pyrazolo[3,4-b]pyridin-6-yl)cyclopropanecarboxamide]	0.1 to 0.5 nM	–
COc1c(Nc2cc(Nc3cccc(C#N)n3)ncc2-c2nnc(CO)o2)cccc1-c1ncn(C)n1 [VIII-13, 6-((5-(5-(hydroxymethyl)-1,3,4-oxadiazol-2-yl)-4-((2-methoxy-3-(1-methyl-1H-1,2,4-triazol-3-yl)phenyl)amino)pyridin-2-yl)amino)picolinonitrile]	–	Kd [2]: 0.1 to 1 nM
COc1c(Nc2cc(NC(=O)C3CC3)nc3[nH]n(C)c(=O)c23)cccc1C(N)=O [Compound I-102, 3-((6-(cyclopropanecarboxamido)-2-methyl-3-oxo-2,3-dihydro-1H-pyrazolo[3,4-b]pyridin-4-yl)amino)-2-methoxybenzamide]	> 10 nM	–
COc1c(Nc2cc(Nc3cccc(C#N)n3)ncc2-c2ncc(Cl)s2)cccc1-c1nnn(C)n1 [VIII-15, 6-((5-(5-chlorothiazol-2-yl)-4-((2-methoxy-3-(2-methyl-2H-tetrazol-5-yl)phenyl)amino)pyridin-2-yl)amino)picolinonitrile]	–	Kd [2]: 1 to 10 nM
